Experimental data reported in ChEMBL document CHEMBL4673362, “Design, synthesis, and biological evaluation of 2,6,7-substituted pyrrolo[2,3-d]pyrimidines as cyclin dependent kinase inhibitor in pancreatic cancer cells” (Bioorg Med Chem Lett, 2021).
Active and inactive are the calls of the source. The calls are words filed in the database; no cut-off is given here.

Legend:
[1] = molecular target: Cyclin-dependent kinase 3 (Homo sapiens) (UniProt Q00526); experiment: Inhibition of CDK3 (unknown origin) at 1 uM
[2] = molecular target: CDK4/Cyclin D3 (Homo sapiens) (UniProt P11802+P30281); experiment: Inhibition of human CDK4/cyclin D3 at 1 uM relative to control; assay type: protein-complex assay
MIA PaCa-2 [3] = experiment: Antiproliferative activity against human MIA PaCa-2 cells assessed as inhibition of cell growth by MTT assay; assay type: functional, cell-based
[4] = molecular target: Cyclin-dependent kinase 4/cyclin D1 (Homo sapiens) (UniProt P11802+P24385); experiment: Inhibition of human CDK4/cyclin D1 at 1 uM relative to control; assay type: protein-complex assay
[5] = molecular target: Cyclin-dependent kinase 8 (Homo sapiens) (UniProt P49336); experiment: Inhibition of CDK8 (unknown origin) at 1 uM
[6] = molecular target: Cyclin-dependent kinase 4/cyclin D1 (Homo sapiens, UniProt P11802); experiment: Inhibition of CDK4/cyclin D1 (unknown origin); assay type: protein-complex assay
[7] = molecular target: Cyclin-dependent kinase 1 (Homo sapiens) (UniProt P06493); experiment: Inhibition of CDK1 (unknown origin) at 1 uM
[8] = molecular target: Dual specificity protein kinase TTK (Homo sapiens) (UniProt P33981); experiment: Inhibition of human TTK at 1 uM relative to control
[9] = molecular target: Cyclin-dependent kinase 9 (Homo sapiens) (UniProt P50750); experiment: Inhibition of CDK9 (unknown origin) at 1 uM
[10] = molecular target: Tyrosine-protein kinase Fer (Homo sapiens) (UniProt P16591); experiment: Inhibition of human FER at 1 uM relative to control
[11] = molecular target: Cyclin-dependent kinase 5 (Homo sapiens) (UniProt Q00535); experiment: Inhibition of CDK5 (unknown origin) at 1 uM
[12] = molecular target: Cyclin-dependent kinase 2 (Homo sapiens) (UniProt P24941); experiment: Inhibition of CDK2 (unknown origin) at 1 uM
[13] = molecular target: Cyclin-dependent kinase 7 (Homo sapiens) (UniProt P50613); experiment: Inhibition of CDK7 (unknown origin) at 1 uM
[14] = molecular target: CDK6/cyclin D1 (Homo sapiens) (UniProt P24385+Q00534); experiment: Inhibition of human CDK6/cyclin D1 at 1 uM relative to control; assay type: protein-complex assay
[15] = molecular target: Mitogen-activated protein kinase kinase kinase 9 (Homo sapiens) (UniProt P80192); experiment: Inhibition of human MLK1 at 1 uM relative to control
[16] = molecular target: Cyclin-dependent kinase 6 (Homo sapiens) (UniProt Q00534); experiment: Inhibition of CDK6 (unknown origin) at 1 uM
[17] = molecular target: Calcium/calmodulin-dependent protein kinase type 1 (Homo sapiens) (UniProt Q14012); experiment: Inhibition of human CAMK1 at 1 uM relative to control
[18] = molecular target: Cyclin-dependent kinase 4 (Homo sapiens) (UniProt P11802); experiment: Inhibition of CDK4 (unknown origin) at 1 uM
[19] = molecular target: Calcium/calmodulin-dependent protein kinase kinase 1 (Homo sapiens) (UniProt Q8N5S9); experiment: Inhibition of human CAMKKA at 1 uM relative to control
CDK6/cyclin D1 = CDK6/cyclin D1 (Homo sapiens, UniProt Q00534); experiment: Inhibition of CDK6/cyclin D1 (unknown origin); assay type: protein-complex assay
BXPC-3 = experiment: Antiproliferative activity against human BxPC-3 cells assessed as inhibition of cell growth by MTT assay; assay type: functional, cell-based
MIA PaCa-2 [20] = experiment: Cell cycle arrest in human MIA PaCa-2 cells assessed as accumulation at G1 phase at 1.6 uM (reference value: 44.09 %); assay type: functional
MIA PaCa-2 [21] = experiment: Cell cycle arrest in human MIA PaCa-2 cells assessed as accumulation at S phase at 2.5 uM (reference value: 45.27 %); assay type: functional
[22] = Permeability of the compound at pH 7.4 by PAMPA; assay type: ADME; conditions: read-out: permeability
MIA PaCa-2 [23] = experiment: Cell cycle arrest in human MIA PaCa-2 cells assessed as accumulation at G2 phase at 1.6 uM (reference value: 10.64 %); assay type: functional
[24] = Metabolic stability in human liver microsomes assessed as half life; assay type: ADME, Microsome
MIA PaCa-2 [25] = experiment: Cell cycle arrest in human MIA PaCa-2 cells assessed as accumulation at S phase at 0.8 uM (reference value: 45.27 %); assay type: functional
[26] = Permeability of the compound at pH 5.0 by PAMPA; assay type: ADME; conditions: read-out: permeability
MIA PaCa-2 [27] = experiment: Cell cycle arrest in human MIA PaCa-2 cells assessed as accumulation at G2 phase at 0.8 uM (reference value: 10.64 %); assay type: functional
[28] = Metabolic stability in rat liver microsomes assessed as half life; assay type: ADME, Microsome
MIA PaCa-2 [29] = experiment: Cell cycle arrest in human MIA PaCa-2 cells assessed as accumulation at G1 phase at 0.8 uM (reference value: 44.09 %); assay type: functional
MIA PaCa-2 [30] = experiment: Cell cycle arrest in human MIA PaCa-2 cells assessed as accumulation at G1 phase at 2.5 uM (reference value: 44.09 %); assay type: functional
MIA PaCa-2 [31] = experiment: Cell cycle arrest in human MIA PaCa-2 cells assessed as accumulation at S phase at 1.6 uM (reference value: 45.27 %); assay type: functional
[32] = Solubility of the compound at pH 7.4; assay type: physicochemical; conditions: buffer
MIA PaCa-2 [33] = experiment: Cell cycle arrest in human MIA PaCa-2 cells assessed as accumulation at G2 phase at 2.5 uM (reference value: 10.64 %); assay type: functional

Sequence of CDK6/cyclin D1 (P24385 whole entry): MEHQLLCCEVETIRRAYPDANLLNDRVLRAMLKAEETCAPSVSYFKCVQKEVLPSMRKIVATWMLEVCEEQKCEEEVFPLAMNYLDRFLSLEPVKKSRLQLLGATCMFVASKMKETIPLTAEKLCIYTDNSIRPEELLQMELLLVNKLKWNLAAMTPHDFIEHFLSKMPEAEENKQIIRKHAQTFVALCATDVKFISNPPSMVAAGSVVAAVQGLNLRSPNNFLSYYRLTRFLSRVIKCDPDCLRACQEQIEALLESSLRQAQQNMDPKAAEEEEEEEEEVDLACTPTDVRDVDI
Sequence of CDK6/cyclin D1 (Q00534 whole entry): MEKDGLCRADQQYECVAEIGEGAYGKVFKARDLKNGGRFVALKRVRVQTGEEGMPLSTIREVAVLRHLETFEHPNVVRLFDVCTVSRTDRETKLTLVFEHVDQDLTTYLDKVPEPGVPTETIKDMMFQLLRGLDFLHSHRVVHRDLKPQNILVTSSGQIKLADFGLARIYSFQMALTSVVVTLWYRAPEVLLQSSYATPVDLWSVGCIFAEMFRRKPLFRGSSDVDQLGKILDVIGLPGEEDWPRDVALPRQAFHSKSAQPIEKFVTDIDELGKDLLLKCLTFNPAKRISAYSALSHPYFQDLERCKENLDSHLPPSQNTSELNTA
Sequence of Cyclin-dependent kinase 4 (Homo sapiens) (P11802 whole entry): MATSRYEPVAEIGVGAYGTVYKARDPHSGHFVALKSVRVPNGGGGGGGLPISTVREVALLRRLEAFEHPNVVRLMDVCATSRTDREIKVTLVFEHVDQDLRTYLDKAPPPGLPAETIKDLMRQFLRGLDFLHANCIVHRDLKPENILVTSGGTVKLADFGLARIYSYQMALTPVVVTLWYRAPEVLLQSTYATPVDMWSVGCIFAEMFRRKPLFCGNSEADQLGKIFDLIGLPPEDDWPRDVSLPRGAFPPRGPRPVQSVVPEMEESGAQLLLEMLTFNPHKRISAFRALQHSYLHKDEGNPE
Sequence of Cyclin-dependent kinase 4/cyclin D1 (P11802 whole entry): as above
Sequence of Cyclin-dependent kinase 4/cyclin D1 (P24385 whole entry, further chain): as the sequence (P24385 whole entry) above
Sequence of Cyclin-dependent kinase 6 (Homo sapiens) (Q00534 whole entry): as the sequence (Q00534 whole entry) above
Sequence of Cyclin-dependent kinase 5 (Homo sapiens) (Q00535 whole entry, looked up): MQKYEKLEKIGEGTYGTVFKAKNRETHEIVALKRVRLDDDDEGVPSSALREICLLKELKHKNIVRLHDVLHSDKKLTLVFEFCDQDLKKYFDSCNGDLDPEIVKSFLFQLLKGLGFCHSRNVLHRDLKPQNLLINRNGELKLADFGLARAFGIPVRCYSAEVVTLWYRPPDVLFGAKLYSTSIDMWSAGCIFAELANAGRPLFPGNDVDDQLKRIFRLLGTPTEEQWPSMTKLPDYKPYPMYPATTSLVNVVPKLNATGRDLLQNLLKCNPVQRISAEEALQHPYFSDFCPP
Sequence of Cyclin-dependent kinase 8 (Homo sapiens) (P49336 whole entry): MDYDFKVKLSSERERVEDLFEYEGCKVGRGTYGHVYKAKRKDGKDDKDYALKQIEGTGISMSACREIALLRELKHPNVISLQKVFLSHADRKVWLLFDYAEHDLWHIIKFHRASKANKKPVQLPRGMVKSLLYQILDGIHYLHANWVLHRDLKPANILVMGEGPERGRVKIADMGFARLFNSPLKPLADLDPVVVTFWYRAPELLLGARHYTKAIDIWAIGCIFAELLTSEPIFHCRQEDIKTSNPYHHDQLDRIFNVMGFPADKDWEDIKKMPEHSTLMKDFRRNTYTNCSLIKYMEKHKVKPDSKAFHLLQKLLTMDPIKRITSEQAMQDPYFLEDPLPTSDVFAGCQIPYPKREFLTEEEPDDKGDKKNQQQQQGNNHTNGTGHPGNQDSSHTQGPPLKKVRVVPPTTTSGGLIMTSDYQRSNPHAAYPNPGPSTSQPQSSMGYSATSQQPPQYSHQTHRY
Sequence of Mitogen-activated protein kinase kinase kinase 9 (Homo sapiens) (P80192 whole entry, looked up): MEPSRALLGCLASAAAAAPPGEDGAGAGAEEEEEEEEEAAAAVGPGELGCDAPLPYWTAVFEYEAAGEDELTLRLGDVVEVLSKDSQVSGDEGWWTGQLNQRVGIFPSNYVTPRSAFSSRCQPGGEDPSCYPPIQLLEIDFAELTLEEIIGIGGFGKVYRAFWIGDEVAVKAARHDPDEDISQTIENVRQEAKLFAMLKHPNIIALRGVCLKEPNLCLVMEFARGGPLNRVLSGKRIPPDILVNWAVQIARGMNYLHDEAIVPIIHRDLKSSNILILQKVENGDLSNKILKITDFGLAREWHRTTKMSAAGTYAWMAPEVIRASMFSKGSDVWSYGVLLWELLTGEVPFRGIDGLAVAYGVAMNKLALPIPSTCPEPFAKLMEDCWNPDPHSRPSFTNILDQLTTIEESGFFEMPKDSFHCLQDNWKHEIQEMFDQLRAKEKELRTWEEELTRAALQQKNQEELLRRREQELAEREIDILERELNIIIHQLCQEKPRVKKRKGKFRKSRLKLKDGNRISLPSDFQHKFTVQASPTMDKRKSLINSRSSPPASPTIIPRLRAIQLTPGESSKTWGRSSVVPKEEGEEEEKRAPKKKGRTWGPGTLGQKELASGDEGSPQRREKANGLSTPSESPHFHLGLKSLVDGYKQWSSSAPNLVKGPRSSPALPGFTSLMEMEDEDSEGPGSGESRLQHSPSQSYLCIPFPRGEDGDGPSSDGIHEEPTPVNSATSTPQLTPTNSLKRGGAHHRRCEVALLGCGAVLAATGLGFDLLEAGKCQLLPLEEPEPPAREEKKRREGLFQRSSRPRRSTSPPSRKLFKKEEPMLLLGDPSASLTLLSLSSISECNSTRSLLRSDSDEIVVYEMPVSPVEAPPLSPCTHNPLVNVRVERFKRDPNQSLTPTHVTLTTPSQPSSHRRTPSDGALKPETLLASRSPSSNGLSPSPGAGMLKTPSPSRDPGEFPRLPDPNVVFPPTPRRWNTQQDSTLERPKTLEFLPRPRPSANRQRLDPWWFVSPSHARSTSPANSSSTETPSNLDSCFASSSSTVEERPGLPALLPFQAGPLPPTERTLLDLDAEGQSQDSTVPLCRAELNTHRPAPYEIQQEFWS
Sequence of Cyclin-dependent kinase 3 (Homo sapiens) (Q00526 whole entry, looked up): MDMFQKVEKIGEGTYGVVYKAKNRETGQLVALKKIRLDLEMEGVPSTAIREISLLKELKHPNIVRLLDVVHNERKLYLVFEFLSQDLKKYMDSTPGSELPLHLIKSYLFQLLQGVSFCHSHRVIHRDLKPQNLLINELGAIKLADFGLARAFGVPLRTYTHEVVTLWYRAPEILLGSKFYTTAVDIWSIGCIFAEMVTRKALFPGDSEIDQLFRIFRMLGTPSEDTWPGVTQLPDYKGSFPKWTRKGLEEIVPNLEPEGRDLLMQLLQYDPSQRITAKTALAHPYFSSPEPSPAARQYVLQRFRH
Sequence of Cyclin-dependent kinase 9 (Homo sapiens) (P50750 whole entry): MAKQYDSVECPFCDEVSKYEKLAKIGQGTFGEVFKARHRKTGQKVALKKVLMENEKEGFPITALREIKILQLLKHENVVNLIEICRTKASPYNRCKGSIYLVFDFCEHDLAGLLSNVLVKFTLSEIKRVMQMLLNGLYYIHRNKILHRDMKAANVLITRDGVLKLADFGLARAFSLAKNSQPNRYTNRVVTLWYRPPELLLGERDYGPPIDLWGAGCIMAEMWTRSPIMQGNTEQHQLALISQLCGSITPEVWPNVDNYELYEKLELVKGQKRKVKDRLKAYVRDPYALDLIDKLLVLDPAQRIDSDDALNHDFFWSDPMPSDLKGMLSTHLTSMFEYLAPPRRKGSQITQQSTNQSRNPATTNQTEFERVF
Sequence of Cyclin-dependent kinase 7 (Homo sapiens) (P50613 whole entry): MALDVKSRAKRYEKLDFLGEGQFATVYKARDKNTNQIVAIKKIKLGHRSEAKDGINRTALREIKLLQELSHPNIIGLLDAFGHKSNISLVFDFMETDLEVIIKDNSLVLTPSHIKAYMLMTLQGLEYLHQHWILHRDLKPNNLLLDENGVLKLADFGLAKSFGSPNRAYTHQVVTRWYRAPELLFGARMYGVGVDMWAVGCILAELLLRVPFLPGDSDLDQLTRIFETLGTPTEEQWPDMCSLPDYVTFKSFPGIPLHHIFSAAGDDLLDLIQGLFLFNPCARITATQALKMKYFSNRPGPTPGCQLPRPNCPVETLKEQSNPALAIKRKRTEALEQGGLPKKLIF
Sequence of Calcium/calmodulin-dependent protein kinase kinase 1 (Homo sapiens) (Q8N5S9 whole entry, looked up): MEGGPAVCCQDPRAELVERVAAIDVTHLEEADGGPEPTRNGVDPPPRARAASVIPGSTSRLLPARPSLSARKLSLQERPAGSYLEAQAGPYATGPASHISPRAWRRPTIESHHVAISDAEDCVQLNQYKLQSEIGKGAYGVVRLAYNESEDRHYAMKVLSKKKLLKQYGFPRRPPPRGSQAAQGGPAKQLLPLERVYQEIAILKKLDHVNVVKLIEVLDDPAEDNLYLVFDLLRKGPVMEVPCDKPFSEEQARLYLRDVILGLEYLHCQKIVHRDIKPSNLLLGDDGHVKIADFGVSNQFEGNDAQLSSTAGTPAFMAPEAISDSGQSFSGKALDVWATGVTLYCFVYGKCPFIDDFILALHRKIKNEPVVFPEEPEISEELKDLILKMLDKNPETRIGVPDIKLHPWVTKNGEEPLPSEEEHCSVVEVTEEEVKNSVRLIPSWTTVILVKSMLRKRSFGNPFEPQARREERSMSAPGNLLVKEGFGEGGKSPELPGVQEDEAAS
Sequence of Cyclin-dependent kinase 1 (Homo sapiens) (P06493 whole entry, looked up): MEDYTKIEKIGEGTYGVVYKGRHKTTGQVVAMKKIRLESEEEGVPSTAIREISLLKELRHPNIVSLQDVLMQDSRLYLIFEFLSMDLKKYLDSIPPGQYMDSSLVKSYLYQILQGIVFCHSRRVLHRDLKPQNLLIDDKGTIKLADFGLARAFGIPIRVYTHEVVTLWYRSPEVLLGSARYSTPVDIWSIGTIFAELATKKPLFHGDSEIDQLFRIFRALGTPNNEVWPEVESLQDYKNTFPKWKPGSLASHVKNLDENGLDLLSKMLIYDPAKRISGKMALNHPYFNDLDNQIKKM

SMILES | IC50 (MIA PaCa-2 [3]) [µM] | IC50 [6] [µM] | inhibition [16] | inhibition [18] | IC50 (CDK6/cyclin D1) [µM] | IC50 (BXPC-3) [µM] | other results
O=C(Nc1ccccc1)c1cc2cnc(Nc3ccc(N4CCNCC4)cn3)nc2n1Cc1ccccc1 | 3.6 | > 100 | inactive | inactive |  |  | inhibition [1]: inactive; inhibition [2]: inactive; inhibition [4]: inactive; inhibition [5]: inactive; inhibition [7]: inactive; inhibition [8]: inactive; inhibition [9]: inactive; inhibition [10]: inactive; inhibition [11]: inactive; inhibition [12]: inactive; inhibition [13]: inactive; inhibition [14]: inactive; inhibition [15]: inactive; inhibition [17]: inactive; inhibition [19]: inactive
CN(C)C(=O)c1cc2cnc(Nc3ccc(Cl)cc3)nc2n1C1CCCC1 | 13 | 0.143 |  |  |  |  | 
O=C(Nc1ccccc1)c1cc2cnc(N3CCN(c4ccc(Cl)cc4)CC3)nc2n1C1CCCC1 | > 200 | > 100 |  |  |  |  | 
CN(C)C(=O)c1cc2cnc(Nc3cccnc3)nc2n1C1CCCC1 | 26 | 0.315 |  |  |  |  | 
CN(C)C(=O)c1cc2cnc(Nc3ccccc3)nc2n1C1CCCC1 | 54.9 | 0.0929 |  |  |  |  | 

Continued, in another order:

IC50 (MIA PaCa-2 [3]) [µM] | IC50 [6] [µM] | inhibition [16] | inhibition [18] | IC50 (CDK6/cyclin D1) [µM] | IC50 (BXPC-3) [µM] | SMILES | other results
2.17 | 0.023 | Active | Active | 0.0528 | 4.35 | O=C(Nc1ccccc1Cl)c1cc2cnc(Nc3ccc(N4CCNCC4)cn3)nc2n1C1CCCC1 | 
3.67 | 0.0453 | Active | Active | 0.369 | 8.37 | O=C(Nc1ccccc1F)c1cc2cnc(Nc3ccc(N4CCNCC4)cn3)nc2n1C1CCCC1 | 
124 | 3.05 |  |  |  |  | O=C(Nc1ccc[n+]([O-])c1)c1cc2cnc(Nc3ccc(N4CCNCC4)cn3)nc2n1C1CCCC1 | 
2.23 | 0.0281 |  |  | 0.268 | 3.65 | COc1ccc(NC(=O)c2cc3cnc(Nc4ccc(N5CCNCC5)cn4)nc3n2C2CCCC2)c(OC)c1 | 
10.7 |  |  |  |  | 68.4 | CN(C)C(=O)c1cc2cnc(Nc3ccc(N4CCNCC4)cn3)nc2n1C1CCCC1 [RIBOCICLIB] | Activity (MIA PaCa-2 [20]): 72.41%; Activity (MIA PaCa-2 [21]): 18.72%; Papp [22]: 123 ×10⁻⁶ cm/s; Activity (MIA PaCa-2 [23]): 5.47%; half-life [24]: 2.44 h; Activity (MIA PaCa-2 [25]): 27.53%; Papp [26]: < 1 ×10⁻⁶ cm/s; Activity (MIA PaCa-2 [27]): 5.5%; half-life [28]: > 0.5 h; Activity (MIA PaCa-2 [29]): 66.97%; Activity (MIA PaCa-2 [30]): 77.2%; Activity (MIA PaCa-2 [31]): 22.12%; solubility [32]: > 64 µg/mL; Activity (MIA PaCa-2 [33]): 4.09%
39.6 | 0.861 |  |  |  |  | O=C(c1cc2cnc(Nc3ccc(N4CCNCC4)cn3)nc2n1C1CCCC1)N1CCCCC1 | 
3.16 | 0.0603 | Active | Active | 0.666 | 8.04 | O=C(Nc1ccccc1C(F)(F)F)c1cc2cnc(Nc3ccc(N4CCNCC4)cn3)nc2n1C1CCCC1 | 
